Patent US8741911B2, “Raf inhibitor compounds” (Eli Lilly and Company, priority 2012, dated 2014)
Where two headings read alike, the source gives them in different places.

Legend:
[1] = test system: NCI-H2126; assay: CellTiter-Glo proliferation and viability assay; format: cell-based; conditions: Homo sapiens
[2] = target: B-Raf (V600E) (Homo sapiens, UniProt P15056, V600E); assay: ActivX KiNativ A375 whole cell lysate assay; format: binding
[3] = target: C-Raf (WT) (Homo sapiens, UniProt P04049); assay: biochemical
[4] = test system: HT-1080; assay: CellTiter-Glo proliferation and viability assay; format: cell-based; conditions: Homo sapiens
[5] = test system: H9; assay: CellTiter-Glo proliferation and viability assay; format: cell-based; conditions: Homo sapiens
[6] = test system: HuH-7; assay: CellTiter-Glo proliferation and viability assay; format: cell-based; conditions: Homo sapiens, read-out: Rel IC50
[7] = test system: NCI-H1694; assay: CellTiter-Glo proliferation and viability assay; format: cell-based; conditions: Homo sapiens
[8] = test system: NCI-H838; assay: CellTiter-Glo proliferation and viability assay; format: cell-based; conditions: Homo sapiens
[9] = test system: U-118-MG; assay: CellTiter-Glo proliferation and viability assay; format: cell-based; conditions: Homo sapiens
[10] = test system: phospho-MEK and phospho-ERK in SK-MeI-2 cells; assay: Immunoblotting (Western Blot) analysis of phospho-MEK and phospho-ERK; format: cell-based, human; conditions: SK-MeI-2, Western Blot
Experimental: N-Ras mutations B-Raf wild type leads to MAPK activation through Raf proteins, particularly C-Raf.
Testing is carried out at doses of 0, and 11 serial dilutions ranging from 0.17 to 10000 nM. Protein lysates are generated by treatment of the cells with RIPA lysis buffer from Millipore. Western blotting analysis is performed substantially as described in Yadav et al, Molecular Carcinogenesis, 2011, 50: 346-52. Briefly, SDS-PAGE is performed on cell lysates containing 20 ug of total protein using 4-20% Novex® tri-glycine gradient gels (Invitrogen). Protein is transferred onto […] nitrocellulose membranes using NuPAGE® Transfer Buffer (Invitrogen) and 10% methanol at 100 V, 4° C. for 1 hr. Generally, the primary antibody is used at 1:1000 dilution, and secondary antibody at 1:20000 dilution. Proteins are detected using the Odyssey Infrared Imaging System (Li-COR Biosciences). Antibodies against ERK1/2, phospho-ERK1/2, phospho-MEK1/2, and actin are obtained from Cell Signaling Technology.

[11] = test system: NOMO-1; assay: CellTiter-Glo proliferation and viability assay; format: cell-based; conditions: Homo sapiens, read-out: Abs IC50

Chain of C-Raf (WT) (P04049 whole entry): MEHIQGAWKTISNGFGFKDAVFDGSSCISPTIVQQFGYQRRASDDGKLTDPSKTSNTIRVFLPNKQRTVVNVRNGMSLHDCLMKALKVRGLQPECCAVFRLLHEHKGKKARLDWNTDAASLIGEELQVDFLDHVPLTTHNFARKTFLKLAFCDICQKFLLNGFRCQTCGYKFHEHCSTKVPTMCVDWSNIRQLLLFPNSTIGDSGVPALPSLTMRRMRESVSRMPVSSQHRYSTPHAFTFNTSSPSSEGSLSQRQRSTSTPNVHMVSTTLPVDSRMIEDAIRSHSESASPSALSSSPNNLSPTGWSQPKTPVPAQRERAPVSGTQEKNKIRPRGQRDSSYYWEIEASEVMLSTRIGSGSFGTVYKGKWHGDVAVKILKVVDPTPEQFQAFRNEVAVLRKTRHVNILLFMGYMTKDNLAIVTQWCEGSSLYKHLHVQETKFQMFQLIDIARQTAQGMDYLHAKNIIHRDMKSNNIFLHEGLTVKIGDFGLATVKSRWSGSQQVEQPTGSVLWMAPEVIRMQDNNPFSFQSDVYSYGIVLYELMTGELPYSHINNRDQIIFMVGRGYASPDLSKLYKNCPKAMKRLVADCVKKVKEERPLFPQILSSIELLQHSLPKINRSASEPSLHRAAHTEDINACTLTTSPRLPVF
Chain of B-Raf (V600E) (P15056 whole entry V600E): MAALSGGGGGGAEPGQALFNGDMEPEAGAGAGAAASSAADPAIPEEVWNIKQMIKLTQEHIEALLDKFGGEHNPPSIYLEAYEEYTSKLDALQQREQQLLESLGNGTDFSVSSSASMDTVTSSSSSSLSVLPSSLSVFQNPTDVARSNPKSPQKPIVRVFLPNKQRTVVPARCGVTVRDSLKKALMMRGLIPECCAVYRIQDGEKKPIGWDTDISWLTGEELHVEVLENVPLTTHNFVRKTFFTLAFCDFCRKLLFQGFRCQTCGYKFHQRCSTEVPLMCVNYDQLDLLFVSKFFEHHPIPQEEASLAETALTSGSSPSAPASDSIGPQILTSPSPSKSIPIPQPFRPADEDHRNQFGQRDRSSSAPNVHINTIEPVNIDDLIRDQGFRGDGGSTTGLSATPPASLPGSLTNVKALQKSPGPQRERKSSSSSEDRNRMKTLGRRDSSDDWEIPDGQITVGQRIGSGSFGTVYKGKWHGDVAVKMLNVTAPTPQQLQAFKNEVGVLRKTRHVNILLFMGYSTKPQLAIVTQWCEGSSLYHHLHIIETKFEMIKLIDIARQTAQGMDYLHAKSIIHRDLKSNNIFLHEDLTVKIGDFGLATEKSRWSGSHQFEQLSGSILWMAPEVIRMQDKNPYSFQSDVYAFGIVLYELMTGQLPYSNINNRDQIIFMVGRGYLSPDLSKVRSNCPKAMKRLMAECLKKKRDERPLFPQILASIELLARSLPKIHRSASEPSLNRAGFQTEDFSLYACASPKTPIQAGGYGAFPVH

IC50 ([1]; read-out: Abs IC50): > 20 nM
IC50 ([1]; read-out: Rel IC50): > 20 nM
inhibition at 0.1 µM ([2]; 100 nM): 82.9%
% inhibition ([2]; 100 nM, 0.1 µM): 82%
inhibition at 1 µM ([2]; 1000 nM): 96.5%
% inhibition ([2]; 1000 nM, 1 µM): >98%
inhibition at 0.001 µM [3]: -11%
inhibition at 0.01 µM [3]: 23.9%
inhibition at 0.1 µM [3]: 50.8%
inhibition at 1 µM [3]: 79.3%
IC50 ([4]; read-out: Abs IC50): 0.98 nM
IC50 ([4]; read-out: Rel IC50): 0.5 nM
IC50 [6]: 0.13 nM
IC50 ([7]; read-out: Abs IC50): 15.1 nM
IC50 ([7]; read-out: Rel IC50): 16.3 nM
IC50 ([8]; read-out: Abs IC50): 13.4 nM
IC50 ([8]; read-out: Rel IC50): 6.97 nM
SMILES: CNc1ncc2cc(-c3cc(NC(=O)NCCC(C)(C)C)c(F)cc3C)c(C)nc2n1 [Example 1, 1-(3,3-Dimethylbutyl)-3-(2-fluoro-4-methyl-5-(7-methyl-2-(methylamino)pyrido[2,3-d]pyrimidin-6-yl)phenyl)urea]
IC50 ([5]; read-out: Abs IC50): 0.33 nM
IC50 ([5]; read-out: Rel IC50): 0.19 nM
IC50 ([9]; read-out: Abs IC50): 5.21 nM
IC50 ([9]; read-out: Rel IC50): 0.76 nM
dose at which phospho-ERK activity is substantially eliminated [10]: 370 nM
phospho-MEK and phospho-ERK inhibition ([10]; 0.17 to 10000 nM): dose dependent phospho-MEK and phospho-ERK inhibition
IC50 [11]: 2.63 nM
